Key:
HeLa = assay: Cytotoxicity against human HeLa cells; format: functional, cell-based
MCF7 = assay: Cytotoxicity against human MCF7 cells; format: functional, cell-based
MT4 = assay: Cytotoxicity against human MT4 cells; format: functional, cell-based
[1] = molecular target: DNA topoisomerase 2-alpha (Homo sapiens, UniProt P11388); assay: Inhibition of human topoisomerase 2alpha-mediated relaxation of supercoiled pBR322 after 1 hr by ethidium bromide staining
Sequence of DNA topoisomerase 2-alpha (P11388 whole entry): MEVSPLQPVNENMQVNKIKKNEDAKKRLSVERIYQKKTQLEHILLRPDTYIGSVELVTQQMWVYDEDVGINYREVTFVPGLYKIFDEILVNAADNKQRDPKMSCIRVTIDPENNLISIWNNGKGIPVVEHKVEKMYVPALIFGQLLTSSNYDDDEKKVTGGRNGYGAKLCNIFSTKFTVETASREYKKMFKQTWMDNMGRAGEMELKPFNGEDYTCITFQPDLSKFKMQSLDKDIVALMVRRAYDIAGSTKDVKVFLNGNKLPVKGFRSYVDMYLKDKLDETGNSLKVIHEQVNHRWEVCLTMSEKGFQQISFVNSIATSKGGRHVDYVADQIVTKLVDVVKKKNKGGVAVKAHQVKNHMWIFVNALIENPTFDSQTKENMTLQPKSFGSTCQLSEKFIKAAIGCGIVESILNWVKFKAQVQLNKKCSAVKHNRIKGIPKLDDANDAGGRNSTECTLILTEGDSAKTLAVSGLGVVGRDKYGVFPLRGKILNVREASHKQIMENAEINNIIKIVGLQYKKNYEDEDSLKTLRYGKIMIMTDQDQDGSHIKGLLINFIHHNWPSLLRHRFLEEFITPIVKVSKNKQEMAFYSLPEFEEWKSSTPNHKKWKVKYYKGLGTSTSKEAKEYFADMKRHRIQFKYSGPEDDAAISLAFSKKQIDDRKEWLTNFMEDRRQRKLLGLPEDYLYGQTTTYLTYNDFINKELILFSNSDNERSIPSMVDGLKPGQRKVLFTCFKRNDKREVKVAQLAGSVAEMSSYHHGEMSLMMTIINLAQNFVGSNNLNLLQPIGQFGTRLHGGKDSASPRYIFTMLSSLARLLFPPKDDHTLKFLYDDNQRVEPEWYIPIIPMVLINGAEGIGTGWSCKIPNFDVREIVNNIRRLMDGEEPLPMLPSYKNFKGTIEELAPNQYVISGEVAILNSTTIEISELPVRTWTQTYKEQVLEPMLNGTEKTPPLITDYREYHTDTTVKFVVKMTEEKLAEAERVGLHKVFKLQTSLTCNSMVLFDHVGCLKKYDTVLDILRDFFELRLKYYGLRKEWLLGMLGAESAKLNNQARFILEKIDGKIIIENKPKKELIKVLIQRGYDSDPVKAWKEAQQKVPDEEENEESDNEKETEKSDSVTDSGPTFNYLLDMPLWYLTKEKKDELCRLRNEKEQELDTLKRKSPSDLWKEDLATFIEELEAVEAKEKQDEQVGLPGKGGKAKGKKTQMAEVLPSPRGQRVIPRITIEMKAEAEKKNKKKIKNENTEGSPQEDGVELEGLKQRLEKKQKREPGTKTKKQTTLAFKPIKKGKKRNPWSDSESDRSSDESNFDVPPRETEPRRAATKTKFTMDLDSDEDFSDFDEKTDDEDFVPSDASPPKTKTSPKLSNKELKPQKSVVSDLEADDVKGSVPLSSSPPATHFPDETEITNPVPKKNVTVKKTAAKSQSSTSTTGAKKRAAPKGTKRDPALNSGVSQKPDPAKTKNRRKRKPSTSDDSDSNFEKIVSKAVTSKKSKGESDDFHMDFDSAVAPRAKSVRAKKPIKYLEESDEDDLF

Compound | IC50 (HeLa; Homo sapiens, HeLa) [µM] | IC50 (MCF7) [µM] | IC50 (MT4) [µM] | IC50 [1] [µM] | IC50 (HeLa; hela) [µM]
CN1CCN(c2nc3c(c(=N)n2-c2ccccc2)c(=S)n(-c2ccccc2)c(=S)n3-c2ccccc2)CC1 | > 50 | > 50 | > 100 | – | –
N=c1c2c(=S)n(-c3ccccc3)c(=S)n(-c3ccccc3)c2nc(NCc2cccnc2)n1-c1ccccc1 [listing 1 of 2 here] | 14.6 | 24.3 | – | 3 | –
N=c1c2c(=S)n(-c3ccccc3)c(=S)n(-c3ccccc3)c2nc(NCc2cccnc2)n1-c1ccccc1 [listing 2 of 2 here] | – | – | > 100 | 3 | 12.6
CCCCN(CCCC)CCCNc1nc2c(c(=N)n1-c1ccccc1)c(=S)n(-c1ccccc1)c(=S)n2-c1ccccc1 | 2 | < 1 | – | > 32 | –
CCN(CC)CCNc1nc2c(c(=N)n1-c1ccccc1)c(=S)n(-c1ccccc1)c(=S)n2-c1ccccc1 | 16.9 | 11.1 | 2.5 | > 100 | –
N=c1c2c(=S)n(-c3ccccc3)c(=S)n(-c3ccccc3)c2nc(NCCc2ccc(Cl)cc2)n1-c1ccccc1 [listing 1 of 2 here] | 5.6 | 25.6 | – | 2 | –
N=c1c2c(=S)n(-c3ccccc3)c(=S)n(-c3ccccc3)c2nc(NCCN2CCCCC2)n1-c1ccccc1 [listing 1 of 2 here] | 5.2 | 26.7 | – | 3 | –
CCN(CC)CCSc1nc2c(c(=N)n1-c1ccccc1)c(=S)n(-c1ccccc1)c(=S)n2-c1ccccc1 | – | – | 3.3 | – | –
N=c1c2c(=S)n(-c3ccccc3)c(=S)n(-c3ccccc3)c2nc(NCCc2ccncc2)n1-c1ccccc1 | 15.4 | 17.8 | 16 | > 100 | –
N=c1c2c(=S)n(-c3ccccc3)c(=S)n(-c3ccccc3)c2nc(NNc2ccccc2)n1-c1ccccc1 | – | – | > 100 | – | –
CN1CCN(CCCNc2nc3c(c(=N)n2-c2ccccc2)c(=S)n(-c2ccccc2)c(=S)n3-c2ccccc2)CC1 [listing 1 of 2 here] | – | – | 2 | – | –
N=c1c2c(=S)n(-c3ccccc3)c(=S)n(-c3ccccc3)c2nc(SCCN2CCCCC2)n1-c1ccccc1 | – | – | 3.6 | – | –
CN1CCN(CCCNc2nc3c(c(=N)n2-c2ccccc2)c(=S)n(-c2ccccc2)c(=S)n3-c2ccccc2)CC1 [listing 2 of 2 here] | 8.5 | 5.7 | – | > 35 | –
O=C1NC(=S)NC(=O)C1C(=O)Nc1ccccc1 [MERBARONE] | 43.8 | 61.6 | 12 | 32 | –
N=c1c2c(=S)n(-c3ccccc3)c(=S)n(-c3ccccc3)c2nc(NCCN2CCCCC2)n1-c1ccccc1 [listing 2 of 2 here] | – | – | 1.7 | – | –
N=c1c2c(=S)n(-c3ccccc3)c(=S)n(-c3ccccc3)c2nc(NCc2ccccn2)n1-c1ccccc1 | > 50 | > 50 | 7 | > 100 | –
N=c1c2c(=S)n(-c3ccccc3)c(=S)n(-c3ccccc3)c2nc(NCCCn2ccnc2)n1-c1ccccc1 | > 100 | > 100 | 8 | – | –
N=c1c2c(=S)n(-c3ccccc3)c(=S)n(-c3ccccc3)c2nc(NCCc2ccc(Cl)cc2)n1-c1ccccc1 [listing 2 of 2 here] | – | – | 2.4 | 2 | 5.9
N=c1c2c(=S)n(-c3ccccc3)c(=S)n(-c3ccccc3)c2nc(NCCc2ccccn2)n1-c1ccccc1 | 10.5 | 17.3 | 8 | > 100 | –
CN(C)CCCNc1nc2c(c(=N)n1-c1ccccc1)c(=S)n(-c1ccccc1)c(=S)n2-c1ccccc1 | 7.8 | 5.5 | 1.7 | > 100 | –

Source: ChEMBL document CHEMBL2440027, “Further SAR studies on bicyclic basic merbarone analogues as potent antiproliferative agents” (Bioorg Med Chem, 2013)
